Experimental data published in patent US20230265104A1, “NOVEL HETEROCYCLIC COMPOUNDS” (PRISM BIOLAB CO., LTD., priority 2020, published 2023).

Tested on: PANC-1 (human pancreatic cancer-derived cell line)
Assay: MTS assay on Panc-1 (human pancreas carcinoma cell line)
Format: cell-based
Conditions: 144 h; for IC50: PANC-1, MTS method, cell survival 6 days after exposure, 4-parameter logistic fit; for inhibition at 10 µM: read-out: Growth inhibition (%) 10 μM; for inhibition at 0.3125 µM: read-out: Growth inhibition (%) 0.3125 μM
Method: Experimental Example: MTS Assay on Panc-1 (Human Pancreas Carcinoma Cell Line) cell line name: PANC-1 derived from: human pancreas glandular cancer purchased from: ATCC product code: CRL-1469 proliferation medium: D-MEM+10% FBS culture environment: 37° C., 5% CO2 seeding density: 5.0×10^5 cells/25 cm^2 solvent control substance: DMSO (HYBRI-MAX®, Sigma-Aldrich Corp.) test substance: Example compound (ID-1-ID-13) A DMSO solution of the test substance was prepared by serially diluting (common ratio 2) each test substance with DMSO.
A solvent control substance sample and a test substance sample were exposed to a human pancreatic cancer-derived cell line (PANC-1), and the survival rate of the cell 6 days later was measured by the MTS method. The measurement was performed 3 times and the average thereof was adopted. The survival rate of the cell in each test substance sample was calculated by the following formula 1 with the value at exposure of the solvent control substance sample as 100% survival rate. […]
survival rate (%)=100×absorbance of each test substance sample/absorbance of solvent control substance sample formula 1 Normalized values calculated by the following formula 2 from the absorbances of each sample at 492 nm and 630 nm and the absorbances of the blank were used as the absorbances in the above-mentioned formula 1. […]
normalized value (ABS492 nm-630 nm)=(ABSsa 492 nm-ABSsa 630 nm)−(ABSbl 492 nm-ABSbl 630 nm) ABSsa 492: absorbance of each sample at wavelength 492 nm ABSsa 630: absorbance of each sample at wavelength 630 nm ABSbl 492: absorbance of blank corresponding to each sample at wavelength 492 nm ABSbl 630: absorbance of blank corresponding to each sample at wavelength 630 nm formula 2 […]
The analysis was performed by using nplr package on R (The R Foundation for Statistical Computing) and estimating the logistic regression curve (4-parameter).

CC(C)C[C@H]1ON(C(=O)/C=C/c2ccc3cccnc3n2)[C@H]2CN(CCC(N)=O)C(=O)[C@H](CC(C)C)N2C1=O [ID-31, 3-((3R,6S,9aS)-1-((E)-3-(1,8-naphthyridin-2-yl)acryloyl)-3,6-diisobutyl-4,7-dioxohexahydropyrazino[2,1-c][1,2,4]oxadiazin-8(1H)-yl)propanamide]
IC50: 2700 nM
inhibition at 10 µM (PANC-1, MTS, 6 days): 99.3%

CSCC[C@H]1C(=O)N(C2CCN(C)CC2)C[C@@H]2N(C(=O)/C=C/c3nc4ccccc4s3)O[C@H](CC(C)C)C(=O)N21 [ID-60, (3R,6S,9aS)-1-((E)-3-(benzo[d]thiazol-2-yl)acryloyl)-3-isobutyl-8-(1-methylpiperidin-4-yl)-6-(2-(methylthio)ethyl)tetrahydropyrazino[2,1-c][1,2,4]oxadiazine-4,7(3H,6H)-dione]
IC50: 270 nM
inhibition at 10 µM (PANC-1, MTS, 6 days): 93.7%

CC(C)C[C@H]1ON(C(=O)/C=C/c2ccccn2)[C@H]2CN(C3CCC(N)CC3)C(=O)[C@H](CC(C)C)N2C1=O (stereo partly drawn) [ID-68, (3R,6S,9aS)-8-(4-aminocyclohexyl)-3,6-diisobutyl-1-((E)-3-(pyridin-2-yl)acryloyl)tetrahydropyrazino[2,1-c][1,2,4]oxadiazine-4,7(3H,6H)-dione]
IC50: 2800 nM

CC(C)C[C@H]1ON(C(=O)/C=C/c2nc(C#CC3(N)CC3)cs2)[C@H]2CN([C@H]3CCN(CCCCO)C3)C(=O)[C@H](CC(C)(C)C)N2C1=O [ID-87, (3R, 6S, 9aS)-1-((E)-3-(4-((1-aminocyclopropyl)ethynyl)thiazol-2-yl)acryloyl)-8-((S)-1-(4-hydroxybutyl)pyrrolidin-3-yl)-3-isobutyl-6-neopentyltetrahydropyrazino[2,1-c][1,2,4]oxadiazine-4,7(3H,6H)-dione]
inhibition at 0.3125 µM (PANC-1, MTS, 6 days): 54.5%

CC(C)C[C@H]1ON(C(=O)/C=C/c2ccccn2)[C@H]2CN(C3CCN(C)CC3)C(=O)[C@H](Cc3ccc(O)cc3)N2C1=O [ID-61, (3R,6S,9aS)-6-(4-hydroxybenzyl)-3-isobutyl-8-(1-methylpiperidin-4-yl)-1-((E)-3-(pyridin-2-yl)acryloyl)tetrahydropyrazino[2,1-c][1,2,4]oxadiazine-4,7(3H,6H)-dione]
IC50: 7300 nM

Cc1nc(/C=C/C(=O)N2O[C@H](CC(C)C)C(=O)N3[C@@H]2CN(CCC(N)=O)C(=O)[C@@H]3CC(C)C)sc1C [ID-34, 3-((3R,6S,9aS)-1-((E)-3-(4,5-dimethylthiazol-2-yl)acryloyl)-3,6-diisobutyl-4,7-dioxohexahydropyrazino[2,1-c][1,2,4]oxadiazin-8(1H)-yl)propanamide]
IC50: 2600 nM
inhibition at 10 µM (PANC-1, MTS, 6 days): 95.5%

CC(C)C[C@H]1ON(C(=O)/C=C/c2csc(N3CCOCC3)n2)[C@H]2CN(C3CCN(C)CC3)C(=O)[C@H](CC(C)C)N2C1=O [ID-56, (3R,6S,9aS)-3,6-diisobutyl-8-(1-methylpiperidin-4-yl)-1-((E)-3-(2-morpholinothiazol-4-yl)acryloyl)tetrahydropyrazino[2,1-c][1,2,4]oxadiazine-4,7 (3H, 6H)-dione]
inhibition at 10 µM (PANC-1, MTS, 6 days): 95.3%

CNC(=O)CCN1C[C@@H]2N(C(=O)/C=C/c3ccccn3)O[C@H](CC(C)C)C(=O)N2[C@@H](CC(C)C)C1=O [ID-18, 3-((3R,6S,9aS)-3,6-diisobutyl-4,7-dioxo-1-((E)-3-(pyridin-2-yl)acryloyl)hexahydropyrazino[2,1-c][1,2,4]oxadiazin-8 (1H)-yl)—N-methylpropanamide]
IC50: 15900 nM
inhibition at 30 µM (PANC-1, MTS, 6 days, 30 μM, read-out: Growth inhibition (%) 30 μM): 96.4%

CC(C)C[C@H]1ON(C(=O)/C=C/c2nc3ccccc3s2)[C@H]2CN(C3CCN(C(=O)c4ncc(F)cn4)CC3)C(=O)[C@H](CC(C)C)N2C1=O [ID-50, (3R,6S,9aS)-1-((E)-3-(benzo[d]thiazol-2-yl)acryloyl)-8-(1-(5-fluoropyrimidine-2-carbonyl)piperidin-4-yl)-3,6-diisobutyltetrahydropyrazino[2,1-c][1,2,4]oxadiazine-4,7(3H,6H)-dione]
IC50: 590 nM
inhibition at 10 µM (PANC-1, MTS, 6 days): 101%

CC(C)C[C@H]1ON(C(=O)/C=C/c2nc(-c3cccnc3)cs2)[C@H]2CN([C@H]3CCN(CCCCO)C3)C(=O)[C@H](CC(C)(C)C)N2C1=O [ID-82, (3R,6S,9aS)-8-((S)-1-(4-hydroxybutyl)pyrrolidin-3-yl)-3-isobutyl-6-neopentyl-1-((E)-3-(4-(pyridin-3-yl)thiazol-2-yl)acryloyl)tetrahydropyrazino[2,1-c][1,2,4]oxadiazine-4,7 (3H, 6H)-dione]
inhibition at 0.3125 µM (PANC-1, MTS, 6 days): 48.6%

CC(C)C[C@H]1ON(C(=O)/C=C/c2nc3ccccc3s2)[C@H]2CN(C3CCN(CCOCCO)CC3)C(=O)[C@H](CC(C)(C)C)N2C1=O [ID-77, (3R,6S,9aS)-1-((E)-3-(benzo[d]thiazol-2-yl)acryloyl)-8-(1-(2-(2-hydroxyethoxy)ethyl)piperidin-4-yl)-3-isobutyl-6-neopentyltetrahydropyrazino[2,1-c][1,2,4]oxadiazine-4,7(3H,6H)-dione]
inhibition at 0.3125 µM (PANC-1, MTS, 6 days): 55.2%

CC(C)C[C@H]1ON(C(=O)/C=C/[C@H]2CCCN2C)[C@H]2CN(CCC(N)=O)C(=O)[C@H](CC(C)C)N2C1=O [ID-43, 3-((3R,6S,9aS)-3,6-diisobutyl-1-((E)-3-((R)-1-methylpyrrolidin-2-yl)acryloyl)-4,7-dioxohexahydropyrazino[2,1-c][1,2,4]oxadiazin-8 (1H)-yl)propanamide]
IC50: 9400 nM
inhibition at 10 µM (PANC-1, MTS, 6 days): 78.5%

CC(C)C[C@H]1ON(C(=O)/C=C/c2nc3cc(O)ccc3s2)[C@H]2CN(C3CCN(C(C)C)CC3)C(=O)[C@H](CC(C)(C)C)N2C1=O [ID-98, (3R,6S,9aS)-1-((E)-3-(5-hydroxybenzo[d]thiazol-2-yl)acryloyl)-3-isobutyl-8-(1-isopropylpiperidin-4-yl)-6-neopentyltetrahydropyrazino[2,1-c][1,2,4]oxadiazine-4,7(3H,6H)-dione]
inhibition at 0.15625 µM (PANC-1, MTS, 6 days, 0.15625 μM, read-out: Growth inhibition (%) 0.15625 μM): 61.7%

CC(C)C[C@H]1ON(C(=O)/C=C/c2nc(C#CCCCCO)cs2)[C@H]2CN([C@@H]3CCN(CCCCO)C3)C(=O)[C@H](CC(C)(C)C)N2C1=O [ID-11, (3R,6S,9aS)-8-((R)-1-(4-hydroxybutyl)pyrrolidin-3-yl)-1-((E)-3-(4-(6-hydroxyhex-1-yn-1-yl)thiazol-2-yl)acryloyl)-3-isobutyl-6-neopentyltetrahydropyrazino[2,1-c][1,2,4]oxadiazine-4,7(3H,6H)-dione]
IC50: 140 nM

CCOC(=O)c1cnc(/C=C/C(=O)N2O[C@H](CC(C)C)C(=O)N3[C@@H]2CN(CCC(N)=O)C(=O)[C@@H]3CC(C)C)s1 [ID-33, ethyl 2-((E)-3-((3R,6S,9aS)-8-(3-amino-3-oxopropyl)-3,6-diisobutyl-4,7-dioxohexahydropyrazino[2,1-c][1,2,4]oxadiazin-1(6H)-yl)-3-oxoprop-1-en-1-yl)thiazole-5-carboxylate]
IC50: 1100 nM
inhibition at 10 µM (PANC-1, MTS, 6 days): 99.9%

CC(C)C[C@H]1ON(C(=O)/C=C/c2ccccn2)[C@H]2CN(C3CCN(Cc4ncccn4)CC3)C(=O)[C@H](CC(C)C)N2C1=O [ID-36, (3R,6S,9aS)-3,6-diisobutyl-1-((E)-3-(pyridin-2-yl)acryloyl)-8-(1-(pyrimidin-2-ylmethyl)piperidin-4-yl)tetrahydropyrazino[2,1-c][1,2,4]oxadiazine-4,7(3H,6H)-dione]
inhibition at 10 µM (PANC-1, MTS, 6 days): 76%

CC(=O)N1CCC(N2C[C@@H]3N(C(=O)/C=C/c4nc5ccccc5s4)O[C@H](CC(C)C)C(=O)N3[C@@H](CC(C)C)C2=O)CC1 [ID-45, (3R,6S,9aS)-8-(1-acetylpiperidin-4-yl)-1-((E)-3-(benzo[d]thiazol-2-yl)acryloyl)-3,6-diisobutyltetrahydropyrazino[2,1-c][1,2,4]oxadiazine-4,7(3H,6H)-dione]
IC50: 810 nM
inhibition at 10 µM (PANC-1, MTS, 6 days): 101%

CC(C)C[C@H]1ON(C(=O)/C=C/c2ccccn2)[C@H]2CN(C3CCN(C)CC3)C(=O)[C@H](CCCCNCc3ccccc3)N2C1=O [ID-57, (3R,6S,9aS)-6-(4-(benzylamino)butyl)-3-isobutyl-8-(1-methylpiperidin-4-yl)-1-((E)-3-(pyridin-2-yl)acryloyl)tetrahydropyrazino[2,1-c][1,2,4]oxadiazine-4,7(3H,6H)-dione]
IC50: 1000 nM
inhibition at 10 µM (PANC-1, MTS, 6 days): 101%

CC(C)C[C@H]1ON(C(=O)/C=C/c2nc3ccccc3s2)[C@H]2CN(C3CCN(CCCC(=O)O)CC3)C(=O)[C@H](CC(C)(C)C)N2C1=O [ID-76, 4-(4-((3R,6S,9aS)-1-((E)-3-(benzo[d]thiazol-2-yl)acryloyl)-3-isobutyl-6-neopentyl-4,7-dioxohexahydropyrazino[2,1-c][1,2,4]oxadiazin-8 (1H)-yl)piperidin-1-yl)butanoic acid]
IC50: 1600 nM
